Experimental data as given in patent US7799343B2, “Safer control of broadleaf weeds in turf with granular formulations of ALS inhibiting herbicides” (priority 2006, dated 2010).

Experiments:
Format in all cases: in vivo
tall fescue = experiment: Turf tolerance field study, tall fescue, Indiana 2004; settings: 14 Days After Treatment, g ai/Ha: penoxsulam 35, imazaquin 104, bispyribac-sodium 75, trifloxysulfuron-sodium 9.2, metsulfuron-methyl 10.4; for Cover: 0 = bare ground, 100 = thick solid stand; for Color: 0 = brown to dead turf, 10 = lush green; for Injury: 0 = no visible injury, 10 = dead turf
Experimental: (§1) Turf tolerance studies were conducted in monoculture stands of perennial ryegrass and tall fescue. Replicated trials, containing a minimum of three replications and having individual plots ranging in size from 25 to 50 ft. sq (2.3 to 4.6 square meters), were initiated in the late spring when turf was actively growing. […] Natural rainfall and supplemental irrigation, fertilizer, fungicides and insecticides were used to maintain healthy turf throughout the study period. Turf tolerance evaluations were made weekly for 8 weeks after application. Evaluations compared treated and untreated plot areas and consisted of one or all of the following evaluations: 1) visual estimate of turf injury made on a 0 to 10 scale with 0 indicating no visible injury symptoms, 10 being dead turf and 3 or less being commercially acceptable; 2) visual estimate of turf color made on a 0 to 10 scale with 0 being brown to dead turf, 10 being a lush green turf of highest quality and 6.5 being commercially acceptable; 3) visual estimate of turf density made on a 0 to 100 scale with 0 being bare ground, 100 being a thick solid stand of highest quality and 90 percent density being commercially acceptable; 4) visual estimate of turf quality made on a 0 to 10 scale with 0 being brown to dead turf, 10 being a lush green turf of highest quality and 6.5 being commercially acceptable.

[1] = tested on: white clover, Trifolium repens L. (TRFRE); experiment: Postemergent weed control field study, Pennsylvania 2004, TRFRE; settings: g ai/Ha: penoxsulam 35, imazaquin 104, bispyribac-sodium 75, trifloxysulfuron-sodium 9.2, metsulfuron-methyl 10.4; for Percent Weed Control TRFRE 29DAA: 29 Days After Application; for Percent Weed Control TRFRE 56DAA: 56 Days After Application
Description: (§2) The ALS inhibiting herbicides are useful in controlling broadleaf weeds and sedges in turfgrass. They are particularly effective against most important weeds in this application, viz., white clover, Trifolium repens L. (TRFRE); buckhorn plantain, Plantago lanceolata L. (PLALA); dandelion, Taraxacum officinale (TAROF); broadleaf plantain, Plantago major L. (PLAMA); ground ivy, Glechoma hederacea L. (GLEHE); common lespedeza, Lespedeza striata (LESST); pennywort (dollarweed), Hydrocotyle spp (HYDSS); Virginia buttonweed, Diodia virginiana L. (DIQVI) English daisy, Bellis perennis L. (BELPE); annual bluegrass, Poa annua (POANN); and yellow nutsedge, Cypres esculentus L. (CYPES).
(§3) Field studies were conducted in established turfgrass sites containing a natural population of target broadleaf weeds. Replicated trials, containing a minimum of three replications and having individual plots ranging in size from 25 to 50 ft. sq (2.3 to 4.6 square meters), were initiated in the late spring when turf and weeds were actively growing. […] Applications were made in the early morning when dew was present. Natural rainfall and supplemental irrigation were used to maintain healthy turf and active weed growth throughout the study period. Control of each weed species in the study site was made at approximately 2, 4 and 8 weeks after treatment. Control was determined visually by comparing treated and untreated weeds and scored on a 0 to 100 percent scale where 0 corresponds to no control and 100 corresponds to complete kill.

[2] = tested on: annual bluegrass, Poa annua (POANN); experiment: Postemergent weed control field study, Pennsylvania 2004, POANN; settings: g ai/Ha: penoxsulam 35, imazaquin 104, bispyribac-sodium 75, trifloxysulfuron-sodium 9.2, metsulfuron-methyl 10.4; for Percent Weed Control POANN 29DAA: 29 Days After Application; for Percent Weed Control POANN 56DAA: 56 Days After Application
Description: as §2
(§4) Field studies were conducted in established turfgrass sites containing a natural population of target broadleaf weeds. Replicated trials, containing a minimum of three replications and having individual plots ranging in size from 25 to 50 ft. sq (2.3 to 4.6 square meters), were initiated in the late spring when turf and weeds were actively growing. Granule treatments were uniformly applied to individual plots using a common hand-shaker method. Applications were made in the early morning when dew was present. Natural rainfall and supplemental irrigation were used to maintain healthy turf and active weed growth throughout the study period. Control of each weed species in the study site was made at approximately 2, 4 and 8 weeks after treatment. Control was determined visually by comparing treated and untreated weeds and scored on a 0 to 100 percent scale where 0 corresponds to no control and 100 corresponds to complete kill.

perennial ryegrass [3] = experiment: Perennial ryegrass turf quality field study, Pennsylvania 2004; settings: perennial ryegrass, 0 = brown to dead turf, 10 = highest quality, g ai/Ha: penoxsulam 35, imazaquin 104, bispyribac-sodium 75, trifloxysulfuron-sodium 9.2, metsulfuron-methyl 10.4; for Turf Quality 4 DAA: 4 Days After Application; for Turf Quality 16 DAA: 16 Days After Application; for Turf Quality 36 DAA: 36 Days After Application
Experimental: as §1

[4] = tested on: dandelion, Taraxacum officinale (TAROF); experiment: Postemergent weed control field study, Pennsylvania 2004, TAROF; settings: Liquid formulation, g ai/Ha: penoxsulam 35, imazaquin 104, bispyribac-sodium 75, trifloxysulfuron-sodium 9.2, metsulfuron-methyl 10.4; for Percent Weed Control TAROF 29DAA: 29 Days After Application; for Percent Weed Control TAROF 56DAA: 56 Days After Application
perennial ryegrass [5] = experiment: Turf tolerance field study, perennial ryegrass, Indiana 2004; settings: 21 Days After Treatment, g ai/Ha: penoxsulam 35, imazaquin 104, bispyribac-sodium 75, trifloxysulfuron-sodium 9.2, metsulfuron-methyl 10.4; for Cover: 0 = bare ground, 100 = thick solid stand; for Color: 0 = brown to dead turf, 10 = lush green; for Injury: 0 = no visible injury, 10 = dead turf
Experimental: as §1

[6] = tested on: dandelion, Taraxacum officinale (TAROF); experiment: Postemergent weed control field study, Pennsylvania 2004, TAROF; settings: Granule formulation, g ai/Ha: penoxsulam 35, imazaquin 104, bispyribac-sodium 75, trifloxysulfuron-sodium 9.2, metsulfuron-methyl 10.4; for Percent Weed Control TAROF 29DAA: 29 Days After Application; for Percent Weed Control TAROF 56DAA: 56 Days After Application
Description: as §2, §4

[7] = tested on: buckhorn plantain, Plantago lanceolata L. (PLALA); experiment: Postemergent weed control field study, Pennsylvania 2004, PLALA; settings: g ai/Ha: penoxsulam 35, imazaquin 104, bispyribac-sodium 75, trifloxysulfuron-sodium 9.2, metsulfuron-methyl 10.4; for Percent Weed Control PLALA 29DAA: 29 Days After Application; for Percent Weed Control PLALA 56DAA: 56 Days After Application
Description: as §2, §3

COc1cc(OC)nc(Oc2cccc(Oc3nc(OC)cc(OC)n3)c2C(=O)O)n1 [Bispyribac-sodium, bispyribac-sodium]
Cover (tall fescue; Granule formulation): 100.0 0-100 Scale
Color (tall fescue; Granule formulation): 9.0 0-10 Scale
Injury (tall fescue; Granule formulation): 0.0 0-10 Scale
Cover (tall fescue; Liquid formulation): 97.5 0-100 Scale
Color (tall fescue; Liquid formulation): 8.8 0-10 Scale
Injury (tall fescue; Liquid formulation): 2.0 0-10 Scale
Percent Weed Control TRFRE 29DAA ([1]; Granule formulation): 36.1%
Percent Weed Control TRFRE 29DAA ([1]; Liquid formulation): 88.9%
Percent Weed Control TRFRE 56DAA ([1]; Liquid formulation): 55.6%
Percent Weed Control POANN 29DAA ([2]; Granule formulation): 40.0%
Percent Weed Control POANN 56DAA ([2]; Granule formulation): 28.9%
Percent Weed Control POANN 29DAA ([2]; Liquid formulation): 28.3%
Percent Weed Control POANN 56DAA ([2]; Liquid formulation): 23.3%
Turf Quality 4 DAA (perennial ryegrass [3]; Granule formulation): 8.7 0 to 10 scale
Turf Quality 16 DAA (perennial ryegrass [3]; Granule formulation): 7.3 0 to 10 scale
Turf Quality 36 DAA (perennial ryegrass [3]; Granule formulation): 10.0 0 to 10 scale
Turf Quality 4 DAA (perennial ryegrass [3]; Liquid formulation): 8.0 0 to 10 scale
Turf Quality 16 DAA (perennial ryegrass [3]; Liquid formulation): 5.7 0 to 10 scale
Turf Quality 36 DAA (perennial ryegrass [3]; Liquid formulation): 10.0 0 to 10 scale
Percent Weed Control TAROF 29DAA [4]: 95.7%
Percent Weed Control TAROF 56DAA [4]: 57.1%
Cover (perennial ryegrass [5]; Granule formulation): 100.0 0-100 Scale
Color (perennial ryegrass [5]; Granule formulation): 8.5 0-10 Scale
Injury (perennial ryegrass [5]; Granule formulation): 1.0 0-10 Scale
Cover (perennial ryegrass [5]; Liquid formulation): 85.0 0-100 Scale
Color (perennial ryegrass [5]; Liquid formulation): 6.5 0-10 Scale
Injury (perennial ryegrass [5]; Liquid formulation): 4.5 0-10 Scale
Percent Weed Control TAROF 29DAA [6]: 45.0%
Percent Weed Control TAROF 56DAA [6]: 23.3%
Percent Weed Control PLALA 29DAA ([7]; Granule formulation): 27.8%
Percent Weed Control PLALA 56DAA ([7]; Granule formulation): 27.8%
Percent Weed Control PLALA 29DAA ([7]; Liquid formulation): 75.6%
Percent Weed Control PLALA 56DAA ([7]; Liquid formulation): 57.8%

CC(C)C1(C)N=C(c2nc3ccccc3cc2C(=O)O)NC1=O (centres unmarked) [Imazaquin, imazaquin]
Cover (tall fescue; Granule formulation): 100.0 0-100 Scale
Color (tall fescue; Granule formulation): 9.0 0-10 Scale
Injury (tall fescue; Granule formulation): 0.5 0-10 Scale
Cover (tall fescue; Liquid formulation): 70.0 0-100 Scale
Color (tall fescue; Liquid formulation): 5.3 0-10 Scale
Injury (tall fescue; Liquid formulation): 5.3 0-10 Scale
Percent Weed Control TRFRE 29DAA ([1]; Granule formulation): 0.0%
Percent Weed Control TRFRE 56DAA ([1]; Granule formulation): 23.3%
Percent Weed Control TRFRE 29DAA ([1]; Liquid formulation): 22.2%
Percent Weed Control TRFRE 56DAA ([1]; Liquid formulation): 11.1%
Percent Weed Control POANN 29DAA ([2]; Granule formulation): 31.4%
Percent Weed Control POANN 56DAA ([2]; Granule formulation): 18.1%
Percent Weed Control POANN 29DAA ([2]; Liquid formulation): 8.8%
Percent Weed Control POANN 56DAA ([2]; Liquid formulation): 26.2%
Turf Quality 4 DAA (perennial ryegrass [3]; Granule formulation): 10.0 0 to 10 scale
Turf Quality 16 DAA (perennial ryegrass [3]; Granule formulation): 3.0 0 to 10 scale
Turf Quality 36 DAA (perennial ryegrass [3]; Granule formulation): 3.3 0 to 10 scale
Turf Quality 4 DAA (perennial ryegrass [3]; Liquid formulation): 7.7 0 to 10 scale
Turf Quality 16 DAA (perennial ryegrass [3]; Liquid formulation): 3.3 0 to 10 scale
Turf Quality 36 DAA (perennial ryegrass [3]; Liquid formulation): 7.7 0 to 10 scale
Percent Weed Control TAROF 29DAA [4]: 58.9%
Percent Weed Control TAROF 56DAA [4]: 11.1%
Cover (perennial ryegrass [5]; Granule formulation): 98.8 0-100 Scale
Color (perennial ryegrass [5]; Granule formulation): 8.8 0-10 Scale
Injury (perennial ryegrass [5]; Granule formulation): 1.8 0-10 Scale
Cover (perennial ryegrass [5]; Liquid formulation): 97.5 0-100 Scale
Color (perennial ryegrass [5]; Liquid formulation): 8.3 0-10 Scale
Injury (perennial ryegrass [5]; Liquid formulation): 3.3 0-10 Scale
Percent Weed Control TAROF 29DAA [6]: 13.9%
Percent Weed Control TAROF 56DAA [6]: 17.8%
Percent Weed Control PLALA 29DAA ([7]; Granule formulation): 22.2%
Percent Weed Control PLALA 56DAA ([7]; Granule formulation): 41.1%
Percent Weed Control PLALA 29DAA ([7]; Liquid formulation): 16.7%
Percent Weed Control PLALA 56DAA ([7]; Liquid formulation): 8.3%

COc1cc(OC)nc(NC(=O)[N-]S(=O)(=O)c2ncccc2OCC(F)(F)F)n1.[Na+] [Trifloxysulfuron-sodium, trifloxysulfuron-sodium]
Cover (tall fescue; Granule formulation): 70.0 0-100 Scale
Color (tall fescue; Granule formulation): 5.8 0-10 Scale
Injury (tall fescue; Granule formulation): 5.8 0-10 Scale
Cover (tall fescue; Liquid formulation): 51.3 0-100 Scale
Color (tall fescue; Liquid formulation): 3.8 0-10 Scale
Injury (tall fescue; Liquid formulation): 8.0 0-10 Scale
Percent Weed Control TRFRE 29DAA ([1]; Granule formulation): 80.0%
Percent Weed Control TRFRE 56DAA ([1]; Granule formulation): 56.7%
Percent Weed Control TRFRE 29DAA ([1]; Liquid formulation): 100.0%
Percent Weed Control TRFRE 56DAA ([1]; Liquid formulation): 100.0%
Percent Weed Control POANN 29DAA ([2]; Granule formulation): 34.5%
Percent Weed Control POANN 56DAA ([2]; Granule formulation): 39.9%
Percent Weed Control POANN 29DAA ([2]; Liquid formulation): 95.4%
Percent Weed Control POANN 56DAA ([2]; Liquid formulation): 77.2%
Turf Quality 4 DAA (perennial ryegrass [3]; Granule formulation): 9.3 0 to 10 scale
Turf Quality 16 DAA (perennial ryegrass [3]; Granule formulation): 4.3 0 to 10 scale
Turf Quality 36 DAA (perennial ryegrass [3]; Granule formulation): 8.3 0 to 10 scale
Turf Quality 4 DAA (perennial ryegrass [3]; Liquid formulation): 7.7 0 to 10 scale
Turf Quality 16 DAA (perennial ryegrass [3]; Liquid formulation): 2.7 0 to 10 scale
Turf Quality 36 DAA (perennial ryegrass [3]; Liquid formulation): 1.3 0 to 10 scale
Percent Weed Control TAROF 29DAA [4]: 98.3%
Percent Weed Control TAROF 56DAA [4]: 100.0%
Cover (perennial ryegrass [5]; Granule formulation): 87.5 0-100 Scale
Color (perennial ryegrass [5]; Granule formulation): 6.8 0-10 Scale
Injury (perennial ryegrass [5]; Granule formulation): 5.3 0-10 Scale
Cover (perennial ryegrass [5]; Liquid formulation): 57.5 0-100 Scale
Color (perennial ryegrass [5]; Liquid formulation): 4.0 0-10 Scale
Injury (perennial ryegrass [5]; Liquid formulation): 8.0 0-10 Scale
Percent Weed Control TAROF 29DAA [6]: 80.6%
Percent Weed Control TAROF 56DAA [6]: 40.0%
Percent Weed Control PLALA 29DAA ([7]; Granule formulation): 0.0%
Percent Weed Control PLALA 56DAA ([7]; Granule formulation): 11.1%
Percent Weed Control PLALA 29DAA ([7]; Liquid formulation): 0.0%
Percent Weed Control PLALA 56DAA ([7]; Liquid formulation): 33.3%
